Assay results from ChEMBL document CHEMBL1201861, “Genomics of Drug Sensitity in Cancer screening data, Wellcome Trust Sanger Institute”.

Experiments:
Assay in all cases: cells
Assay type in all cases: functional, cell-based
Conditions in all cases: Homo sapiens
EW-11 = system: EW-11;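 further: growth inhibition of human EW-11 cells, measured with a cell viability assay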
Description: SANGER: Inhibition of human EW-11 cell growth in a cell viability assay.

LS-123 = system: LS-123
Description: SANGER: Inhibition of human LS-123 cell growth in a cell viability assay.

LB2241-RCC = system: LB2241-RCC;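 further: cell viability assay measuring how strongly the cultured human renal carcinoma line is prevented from growing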
Description: SANGER: Inhibition of human LB2241-RCC cell growth in a cell viability assay.

SJSA-1 = system: SJSA-1;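 further: growth inhibition of human SJSA-1 cells, read out through a cell viability measurement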
Description: SANGER: Inhibition of human SJSA-1 cell growth in a cell viability assay.

EM-2 = system: EM-2;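 further: growth inhibition of EM-2 cells, read out with a cell viability assay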
Description: SANGER: Inhibition of human EM-2 cell growth in a cell viability assay.

KNS-81-FD = system: KNS-81-FD;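 further: growth inhibition of KNS-81-FD cells, read out with a cell viability assay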
Description: SANGER: Inhibition of human KNS-81-FD cell growth in a cell viability assay.

NB10 = system: NB10;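 further: growth inhibition of NB10 cells, read out by a cell viability assay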
Description: SANGER: Inhibition of human NB10 cell growth in a cell viability assay.

NCI-H322M = system: NCI-H322M;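 further: cell viability assay measuring inhibition of growth of human NCI-H322M cells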
Description: SANGER: Inhibition of human NCI-H322M cell growth in a cell viability assay.

D-263MG = system: D-263MG
Description: SANGER: Inhibition of human D-263MG cell growth in a cell viability assay.

SF-268 = system: SF-268;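 further: growth inhibition of SF-268 cells determined with a cell viability assay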
Description: SANGER: Inhibition of human SF268 cell growth in a cell viability assay.

Becker = system: Becker;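 further: growth inhibition of Becker cells, read out with a cell viability assay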
Description: SANGER: Inhibition of human Becker cell growth in a cell viability assay.

L-363 = system: L-363
Description: SANGER: Inhibition of human L-363 cell growth in a cell viability assay.

GI-ME-N = system: GI-ME-N;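 further: growth inhibition of human GI-ME-N cells, read out with a cell viability assay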
Description: SANGER: Inhibition of human GI-ME-N cell growth in a cell viability assay.

SNU-5 = system: SNU-5;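 further: cell viability readout used to measure growth inhibition in human NCI-SNU-5 cells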
Description: SANGER: Inhibition of human NCI-SNU-5 cell growth in a cell viability assay.

MEG-01 = system: MEG-01;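 further: growth inhibition of MEG-01 cells, read out by a cell viability assay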
Description: SANGER: Inhibition of human MEG-01 cell growth in a cell viability assay.

NKM-1 = system: NKM-1;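 further: growth inhibition of NKM-1 cells, read out with a cell viability assay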
Description: SANGER: Inhibition of human NKM-1 cell growth in a cell viability assay.

TE-10 = system: TE-10;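 further: growth inhibition of TE-10 cells, measured by a cell viability assay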
Description: SANGER: Inhibition of human TE-10 cell growth in a cell viability assay.

BE-13 = system: BE-13;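 further: growth inhibition of human BE-13 cells, measured with a cell viability assay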
Description: SANGER: Inhibition of human BE-13 cell growth in a cell viability assay.

VA-ES-BJ = system: VA-ES-BJ;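 further: growth inhibition of the VA-ES-BJ cell line, read out by a cell viability assay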
Description: SANGER: Inhibition of human VA-ES-BJ cell growth in a cell viability assay.

NTERA-2-cl-D1 = system: NTERA-2-cl-D1;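 further: inhibition of cell growth, measured with a cell viability assay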
Description: SANGER: Inhibition of human NTERA-S-cl-D1 cell growth in a cell viability assay.

KE-37 = system: KE-37;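 further: growth inhibition of KE-37 cells, read out with a cell viability assay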
Description: SANGER: Inhibition of human KE-37 cell growth in a cell viability assay.

COLO-320-HSR = system: COLO-320-HSR;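 further: growth inhibition of COLO-320-HSR cells, determined with a cell viability assay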
Description: SANGER: Inhibition of human COLO-320-HSR cell growth in a cell viability assay.

NB5 = system: NB5;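 further: growth inhibition of NB5 cells, read out as cell viability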
Description: SANGER: Inhibition of human NB5 cell growth in a cell viability assay.

MMAC-SF = system: MMAC-SF;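 further: growth inhibition of human MMAC-SF cells, read out with a cell viability assay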
Description: SANGER: Inhibition of human MMAC-SF cell growth in a cell viability assay.

SK-MEL-2 = system: SK-MEL-2;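 further: growth inhibition of human SK-MEL-2 cells measured with a cell viability assay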
Description: SANGER: Inhibition of human SK-MEL-2 cell growth in a cell viability assay.

IST-MEL1 = system: IST-MEL1;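 further: growth inhibition of the cell line, read out with a cell viability assay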
Description: SANGER: Inhibition of human IST-MEL1 cell growth in a cell viability assay.

LB373-MEL-D = system: LB373-MEL-D;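 further: growth inhibition of the cell line, read out in a cell viability assay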
Description: SANGER: Inhibition of human LB373-MEL-D cell growth in a cell viability assay.

UACC-257 = system: UACC-257
Description: SANGER: Inhibition of human UACC-257 cell growth in a cell viability assay.

IST-MES1 = system: IST-MES1;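 further: growth inhibition of IST-MES1 cells, measured with a cell viability assay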
Description: SANGER: Inhibition of human IST-MES1 cell growth in a cell viability assay.

ES7 = system: ES7;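 further: growth inhibition of cultured human ES7 cells, read out as cell viability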
Description: SANGER: Inhibition of human ES7 cell growth in a cell viability assay.

K562 = system: K562
Description: SANGER: Inhibition of human K-562 cell growth in a cell viability assay.

RXF 393 = system: RXF 393;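 further: growth inhibition of human RXF 393 cells, read out with a cell viability assay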
Description: SANGER: Inhibition of human RXF393 cell growth in a cell viability assay.

KM-H2 = system: KM-H2;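 further: growth inhibition of KM-H2 cells, read out by a cell viability assay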
Description: SANGER: Inhibition of human KM-H2 cell growth in a cell viability assay.

EW-18 = system: EW-18;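 further: growth inhibition of EW-18 cells, read out by a cell viability assay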
Description: SANGER: Inhibition of human EW-18 cell growth in a cell viability assay.

HT = system: HT
Description: SANGER: Inhibition of human HT cell growth in a cell viability assay.

KNS-42 = system: KNS-42;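 further: growth inhibition of KNS-42 cells, read out with a cell viability assay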
Description: SANGER: Inhibition of human KNS-42 cell growth in a cell viability assay.

ML-2 = system: ML-2;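 further: growth inhibition of ML-2 cells, measured with a cell viability readout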
Description: SANGER: Inhibition of human ML-2 cell growth in a cell viability assay.

CP66-MEL = system: CP66-MEL;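 further: growth inhibition of CP66-MEL cells determined in a cell viability assay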
Description: SANGER: Inhibition of human CP66-MEL cell growth in a cell viability assay.

L-540 = system: L-540;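 further: growth inhibition of the human L-540 cell line, read out with a viability assay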
Description: SANGER: Inhibition of human L-540 cell growth in a cell viability assay.

ES4 = system: ES4;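 further: growth inhibition of human ES4 cells, read out by a cell viability assay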
Description: SANGER: Inhibition of human ES4 cell growth in a cell viability assay.

PSN1 = system: PSN1;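 further: suppression of growth of human PSN1 cells, read out by a cell viability assay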
Description: SANGER: Inhibition of human PSN1 cell growth in a cell viability assay.

AM-38 = system: AM-38;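 further: growth inhibition of AM-38 cells of human origin, read out by a cell viability assay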
Description: SANGER: Inhibition of human AM-38 cell growth in a cell viability assay.

SF-539 = system: SF-539;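 further: Read-out is a cell viability assay, with IC50 reflecting inhibition of cell growth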
Description: SANGER: Inhibition of human SF539 cell growth in a cell viability assay.

A101D = system: A101D;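 further: growth inhibition of the cell line, measured with a viability assay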
Description: SANGER: Inhibition of human A101D cell growth in a cell viability assay.

no-11 = system: no-11;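 further: growth inhibition of human NO-11 cells, read out with a cell viability assay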
Description: SANGER: Inhibition of human no-11 cell growth in a cell viability assay.

BT-474 = system: BT-474
Description: SANGER: Inhibition of human BT-474 cell growth in a cell viability assay.

COLO-800 = system: COLO-800;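 further: growth inhibition of COLO-800 cells, read out with a cell viability assay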
Description: SANGER: Inhibition of human COLO-800 cell growth in a cell viability assay.

GOTO = system: GOTO;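 further: growth inhibition of GOTO cells, read out by a cell viability assay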
Description: SANGER: Inhibition of human GOTO cell growth in a cell viability assay.

NCI-H446 = system: NCI-H446;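 further: growth inhibition of NCI-H446 cells determined by a cell viability assay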
Description: SANGER: Inhibition of human NCI-H446 cell growth in a cell viability assay.

HL-60 = system: HL-60;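 further: growth inhibition of human HL-60 cells, read out with a cell viability assay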
Description: SANGER: Inhibition of human HL-60 cell growth in a cell viability assay.

MN-60 = system: MN-60;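 further: growth inhibition of the MN-60 cell line, determined with a cell viability assay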
Description: SANGER: Inhibition of human MN-60 cell growth in a cell viability assay.

NCI-H1650 = system: NCI-H1650;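 further: growth inhibition of human NCI-H1650 cells measured by a cell viability assay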
Description: SANGER: Inhibition of human NCI-H1650 cell growth in a cell viability assay.

SH-4 = system: SH-4;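 further: growth inhibition of SH-4 cells, read out with a cell viability assay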
Description: SANGER: Inhibition of human SH-4 cell growth in a cell viability assay.

DU-4475 = system: DU-4475
Description: SANGER: Inhibition of human DU-4475 cell growth in a cell viability assay.

GT3TKB = system: GT3TKB;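 further: growth inhibition of the cell line, read out with a cell viability assay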
Description: SANGER: Inhibition of human GT3TKB cell growth in a cell viability assay.

ALL-PO = system: ALL-PO
Description: SANGER: Inhibition of human ALL-PO cell growth in a cell viability assay.

SMILES: CCNc1cc(N[C@H]2CC[C@@H](O)CC2)nc(Nc2ccc3c(ccn3Cc3ccccc3)c2)n1
- IC50 (EW-11): > 5.12 µM
- IC50 (LS-123): > 5.12 µM
- IC50 (LB2241-RCC): > 5.12 µM
- IC50 (SJSA-1): > 5.12 µM
- IC50 (EM-2): > 5.12 µM
- IC50 (KNS-81-FD): > 5.12 µM
- IC50 (NB10): > 5.12 µM
- IC50 (NCI-H322M): > 5.12 µM
- IC50 (D-263MG): > 5.12 µM
- IC50 (SF-268): > 5.12 µM
- IC50 (Becker): > 5.12 µM
- IC50 (L-363): > 5.12 µM
- IC50 (GI-ME-N): > 5.12 µM
- IC50 (SNU-5): > 5.12 µM
- IC50 (MEG-01): > 5.12 µM
- IC50 (NKM-1): > 5.12 µM
- IC50 (TE-10): 4.39 µM
- IC50 (BE-13): > 5.12 µM
- IC50 (VA-ES-BJ): > 5.12 µM
- IC50 (NTERA-2-cl-D1): > 5.12 µM
- IC50 (KE-37): > 5.12 µM
- IC50 (COLO-320-HSR): > 5.12 µM
- IC50 (NB5): > 5.12 µM
- IC50 (MMAC-SF): > 5.12 µM
- IC50 (SK-MEL-2): > 5.12 µM
- IC50 (IST-MEL1): > 5.12 µM
- IC50 (LB373-MEL-D): > 5.12 µM
- IC50 (UACC-257): > 5.12 µM
- IC50 (IST-MES1): > 5.12 µM
- IC50 (ES7): > 5.12 µM
- IC50 (K562): > 5.12 µM
- IC50 (RXF 393): > 5.12 µM
- IC50 (KM-H2): > 5.12 µM
- IC50 (EW-18): > 5.12 µM
- IC50 (HT): > 5.12 µM
- IC50 (KNS-42): > 5.12 µM
- IC50 (ML-2): > 5.12 µM
- IC50 (CP66-MEL): > 5.12 µM
- IC50 (L-540): > 5.12 µM
- IC50 (ES4): > 5.12 µM
- IC50 (PSN1): > 5.12 µM
- IC50 (AM-38): > 5.12 µM
- IC50 (SF-539): > 5.12 µM
- IC50 (A101D): > 5.12 µM
- IC50 (no-11): > 5.12 µM
- IC50 (BT-474): > 5.12 µM
- IC50 (COLO-800): > 5.12 µM
- IC50 (GOTO): > 5.12 µM
- IC50 (NCI-H446): > 5.12 µM
- IC50 (HL-60): > 5.12 µM
- IC50 (MN-60): > 5.12 µM
- IC50 (NCI-H1650): > 5.12 µM
- IC50 (SH-4): 3.31 µM
- IC50 (DU-4475): > 5.12 µM
- IC50 (GT3TKB): > 5.12 µM
- IC50 (ALL-PO): > 5.12 µM
